Test system: HMEC cells
Test: microarray differential expression, HMEC cells treated with Aza
Assay type: cell-based, human
Details: vs untreated, log base 2, negative = upregulation
Description: HT29 cells were derived from a Grade II adenocarcinoma of the colon obtained from a person. HCT116 cells are a subpopulation of malignant cells isolated from a primary cell culture of a single human colonic carcinoma (Brattain et al. (1981) Cancer Res 41:1751-6). HMEC cells are a primary human epithelial cell line derived from the breast tissue of a normal donor. […] Treated cells were exposed to 500 nM 5-aza-2-deoxycytidine (Aza; Sigma-Aldrich) 24 hours after passage in complete culture medium. Control cultures were treated in parallel with phosphate buffered saline vehicle. After twenty-four hours, culture medium was replaced with drug-free medium. Control and Aza-treated cells were subcultured at equal densities at 1 and 5 days after the initial treatment, and proliferation was measured at the subsequent time point using a Coulter counter (Beckman Coulter, Fullerton Calif.). […]
Cells were harvested and lysed in 1 ml of TRIZOL reagent (5×10^6 cells/ml; Invitrogen). The lysates were vortexed thoroughly and incubated at room temperature for 2-3 minutes and extracted with 0.5 ml chloroform. The extract was mixed, incubated at room temperature for 5 minutes, and centrifuged at 16,000× g for 15 minutes at 4° C. The aqueous layer was collected, and an equal volume of isopropanol was added. Samples were mixed, incubated at room temperature for 10 minutes, and centrifuged at 16,000× g for 20 minutes at 4° C. The supernatant was removed, and the RNA pellet was washed with 1 ml of 70% ethanol, centrifuged at 16,000× g at 4° C., and resuspended in RNAse-free water. The concentration of the RNA was determined by measuring the optical density at 260 nm.
Poly(A) RNA was prepared using an OLIGOTEX mRNA kit (Qiagen) with the following modifications: OLIGOTEX beads were washed in tubes instead of on spin columns, resuspended in elution buffer, and then loaded onto spin columns to recover mRNA. To obtain maximum yield, the mRNA was eluted twice.
Each poly(A) RNA sample was reverse transcribed using MMLV reverse-transcriptase, 0.05 pg/μl oligo-d(T) primer (21mer), 1× first strand buffer, 0.03 units/ul RNAse inhibitor, 500 uM dAT?, 500 uM dGTP, 500 uM dTTP, 40 uM dCTP, and 40 uM either dCTP-Cy3 or dCTP-Cy5 (APB). The reverse transcription reaction was performed in a […] volume containing 200 ng poly(A) RNA using the GEMBRIGHT kit (Incyte Genomics). Specific control poly(A) RNAs (YCFRO6, YCFR45, YCFR67, YCFR85, YCFR43, YCFR22, YCFR23, YCFR25, YCFR44, YCFR26) were synthesized by in vitro transcription from non-coding yeast genomic DNA (W. Lei, unpublished). As quantitative controls, control mRNAs (YCFRO6, YCFR45, YCFR67, and YCFR85) at 0.002 ng, 0.02 ng, 0.2 ng, and 2 ng were diluted into reverse transcription reaction at ratios of 1:100,000, 1:10,000, 1:1000, 1:100 (w/w) to sample mRNA, respectively. To sample differential expression patterns, control mRNAs (YCFR43, YCFR22, YCFR23, YCFR25, YCFR44, YCFR26) were diluted into reverse transcription reaction at ratios of 1:3, 3:1, 1:10, 10:1, 1:25, 25:1 (w/w) to sample mRNA. Reactions were incubated at 37° C. for 2 hours, treated with […] of 0.5M sodium hydroxide, and incubated for 20 minutes at 85° C. to the stop the reaction and degrade the RNA.
cDNAs were purified using two successive CHROMA SPIN 30 gel filtration spin columns (Clontech). Cy3- and Cy5-labeled reaction samples were combined as described below and ethanol precipitated using […] of 100% ethanol. The cDNAs were then dried to completion using a SpeedVAC system (Savant Instruments, Holbrook N.Y.) and resuspended in 14 μl 5× SSC, 0.2% SDS.
Hybridization reactions contained 9 μl of sample mixture containing 0.2 μg each of Cy3 and CyS labeled cDNA synthesis products in 5× SSC, 0.2% SDS hybridization buffer. The mixture was heated to 65° C. for 5 minutes and was aliquoted onto the microarray surface and covered with an 1.8 cm^2 coverslip. […]

[1] = SEQ ID NO:1 hypothetical protein
[2] = SEQ ID NO:3 interferon-inducible protein
[3] = SEQ ID NO:5 chromosome 6p21.3, HLA Class I region
[4] = SEQ ID NO:6 unnamed protein product
[5] = SEQ ID NO:8 putative tumor antigen
[6] = SEQ ID NO:12 cDNA clone ZD16H10
[7] = SEQ ID NO:13, 14 T-cell receptor gamma
[8] = SEQ ID NO:15 pTR5 repetitive sequence
[9] = SEQ ID NO:24 pTR7 repetitive sequence
[10] = SEQ ID NO:25 chromosome 21 segment HS21C049
[11] = SEQ ID NO:26 hypothetical protein

## Nc1ncn([C@H]2C[C@H](O)[C@@H](CO)O2)c(=O)n1 [Aza, 5-aza-2-deoxycytidine]
[1]
  differential expression, Clone ID 2416222, HMEC t/Aza (4d): 0.00
  differential expression, Clone ID 2416222, HMEC t/Aza (9d): 0.00
SEQ ID NO:2 Incyte Unique
  differential expression, Clone ID 4103545, HMEC t/Aza (4d): −0.13
  differential expression, Clone ID 4103545, HMEC t/Aza (9d): −0.43
[2]
  differential expression, Clone ID 322569, HMEC t/Aza (4d): −0.53
  differential expression, Clone ID 322569, HMEC t/Aza (9d): −0.80
[3]
  differential expression, Clone ID 5322134, HMEC t/Aza (4d): −0.32
  differential expression, Clone ID 5322134, HMEC t/Aza (9d): −0.43
[4]
  differential expression, Clone ID 1698458, HMEC t/Aza (4d): 0.26
  differential expression, Clone ID 1698458, HMEC t/Aza (9d): 0.26
SEQ ID NO:7 KIAA1046 protein
  differential expression, Clone ID 1871523, HMEC t/Aza (4d): −0.24
  differential expression, Clone ID 1871523, HMEC t/Aza (9d): −0.07
[5]
  differential expression, Clone ID 6024084, HMEC t/Aza (4d): 0.00
  differential expression, Clone ID 6024084, HMEC t/Aza (9d): 0.00
SEQ ID NO:9 Incyte Unique
  differential expression, Clone ID 3810006, HMEC t/Aza (4d): 0.00
  differential expression, Clone ID 3810006, HMEC t/Aza (9d): 0.00
SEQ ID NO:10 Incyte Unique
  differential expression, Clone ID 4508879, HMEC t/Aza (4d): −0.14
  differential expression, Clone ID 4508879, HMEC t/Aza (9d): −0.20
SEQ ID NO:11 U 6 RNA
  differential expression, Clone ID 4225379, HMEC t/Aza (4d): 0.00
  differential expression, Clone ID 4225379, HMEC t/Aza (9d): 0.00
[6]
  differential expression, Clone ID 3463713, HMEC t/Aza (4d): −0.26
  differential expression, Clone ID 3463713, HMEC t/Aza (9d): −0.48
[7]
  differential expression, Clone ID 2998017, HMEC t/Aza (4d): 0.00
  differential expression, Clone ID 2998017, HMEC t/Aza (9d): 0.00
[8]
  differential expression, Clone ID 4318273, HMEC t/Aza (4d): 0.00
  differential expression, Clone ID 4318273, HMEC t/Aza (9d): −0.26
SEQ ID NO:16 Hep27 protein
  differential expression, Clone ID 1649414, HMEC t/Aza (4d): −0.32
  differential expression, Clone ID 1649414, HMEC t/Aza (9d): −0.32
SEQ ID NO:18 cDNA FLJ20222
  differential expression, Clone ID 1684742, HMEC t/Aza (4d): −0.36
  differential expression, Clone ID 1684742, HMEC t/Aza (9d): −0.20
SEQ ID NO:19 KIAA0412
  differential expression, Clone ID 2825816, HMEC t/Aza (4d): 0.00
  differential expression, Clone ID 2825816, HMEC t/Aza (9d): 0.00
SEQ ID NO:21 Incyte Unique
  differential expression, Clone ID 2440943, HMEC t/Aza (4d): −0.20
  differential expression, Clone ID 2440943, HMEC t/Aza (9d): −0.26
SEQ ID NO:22 PDGF-B
  differential expression, Clone ID 1294339, HMEC t/Aza (4d): −0.68
  differential expression, Clone ID 1294339, HMEC t/Aza (9d): −0.72
SEQ ID NO:23 cDNA FLJ10570
  differential expression, Clone ID 5104741, HMEC t/Aza (4d): 0.00
  differential expression, Clone ID 5104741, HMEC t/Aza (9d): 0.00
[9]
  differential expression, Clone ID 1855389, HMEC t/Aza (4d): −0.14
  differential expression, Clone ID 1855389, HMEC t/Aza (9d): −0.26
[10]
  differential expression, Clone ID 5207613, HMEC t/Aza (4d): −0.26
  differential expression, Clone ID 5207613, HMEC t/Aza (9d): −0.37
[11]
  differential expression, Clone ID 3207902, HMEC t/Aza (4d): −0.14
  differential expression, Clone ID 3207902, HMEC t/Aza (9d): −0.26
SEQ ID NO:27 ZNFpT17
  differential expression, Clone ID 4999769, HMEC t/Aza (4d): 0.00
  differential expression, Clone ID 4999769, HMEC t/Aza (9d): 0.07
SEQ ID NO:28 transketolase
  differential expression, Clone ID 408886, HMEC t/Aza (4d): −0.26
  differential expression, Clone ID 408886, HMEC t/Aza (9d): −0.32
SEQ ID NO:30 GAGE-8
  differential expression, Clone ID 4764233, HMEC t/Aza (4d): 0.00

From US20030013099A1, “Genes regulated by DNA methylation in colon tumors” (priority 2001, published 2003)
